In patent US12479840B2, “HMG-CoA reductase degradation inducing compound” (Uppthera, priority 2020, dated 2025):

target: T1, HMG-CoA reductase (Homo sapiens, UniProt P04035); experiment: HMG-CoA reductase (HMGCR) degradation in HepG2 cells by western blotting; type: cell-based; conditions: treated for 18 hours, ratio of HMG-CoA reductase to GAPDH, read-out: DC50
T1 construct: endogenous in cells; host or cells: HepG2 (Korea Cell Line Bank)
T1 sequence (P04035 1-888): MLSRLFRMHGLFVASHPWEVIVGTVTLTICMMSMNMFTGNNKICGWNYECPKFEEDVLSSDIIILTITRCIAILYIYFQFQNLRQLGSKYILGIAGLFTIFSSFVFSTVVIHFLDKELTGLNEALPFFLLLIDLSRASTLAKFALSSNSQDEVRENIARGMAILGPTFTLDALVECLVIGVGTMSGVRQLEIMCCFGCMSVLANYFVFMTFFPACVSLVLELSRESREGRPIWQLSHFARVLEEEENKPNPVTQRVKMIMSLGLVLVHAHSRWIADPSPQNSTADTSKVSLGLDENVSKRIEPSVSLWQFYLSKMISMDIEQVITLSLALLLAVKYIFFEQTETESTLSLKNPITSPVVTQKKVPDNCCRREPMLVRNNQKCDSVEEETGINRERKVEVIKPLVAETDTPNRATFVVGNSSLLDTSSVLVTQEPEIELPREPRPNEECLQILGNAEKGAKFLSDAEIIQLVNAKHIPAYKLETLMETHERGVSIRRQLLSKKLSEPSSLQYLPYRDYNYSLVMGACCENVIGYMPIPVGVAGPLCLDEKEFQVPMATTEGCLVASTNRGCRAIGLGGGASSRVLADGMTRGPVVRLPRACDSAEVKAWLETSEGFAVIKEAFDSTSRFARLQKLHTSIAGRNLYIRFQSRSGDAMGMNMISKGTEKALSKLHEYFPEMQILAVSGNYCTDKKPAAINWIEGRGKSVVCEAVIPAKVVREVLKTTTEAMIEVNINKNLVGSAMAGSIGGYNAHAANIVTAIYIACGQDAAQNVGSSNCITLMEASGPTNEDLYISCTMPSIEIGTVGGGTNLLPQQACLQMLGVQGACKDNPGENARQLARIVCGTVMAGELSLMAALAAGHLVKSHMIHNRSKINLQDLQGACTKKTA
Description: HepG2, a human liver cancer cell line, was purchased from the Korea Cell Line Bank (KCLB), Seoul, Korea. The passage in cell culture was maintained at P105 to P110.
The compounds of the present invention were completely dissolved in DMSO and used in the experiment. 2×10^5 cells were seeded for each well of a 12-well plate (SPL), and the cells were cultured in the culture medium in a total volume of 2 ml. Each of the compounds of the present invention and comparative compounds was diluted three folds from the highest concentration of 3 μM to the lowest concentration in 10 points and treated for 18 hours.
Each of the compounds the present invention and comparative compounds was diluted three folds from the highest concentration of 3 μM to the lowest concentration of […] in 10 points and was treated for 18 hours.
For SDS-PAGE and Western blotting, 1×RIPA lysis buffer (Rockland, Cat. No. MB-030-0050; Lot no. 39751), 100× Protease Inhibitor Cocktail (Quartett, Cat. No. PPI1015; Lot no. PCO50038424), Pierce™ BCA protein assay kit (ThermoScientific, Cat. No. 23225; Lot no. UC276876), albumin standard (ThermoScientific, Cat. No. 23209; Lot no. UB269561), 4-15% Mini-PROTEAN TGX stain-free gel (Bio-rad, Cat. No. 4568085; Lot no. L007041B), 10× Tris/Glycine/SDS buffer (Bio-rad, Cat. No. 1610732; Lot no. 10000044375B); 10×TBS (Bio-rad, Cat. No. 1706435; Lot no. 1000045140B), 10% Tween 20 (Cat. No. 1610781; Lot no. L004152B), Color protein standard broad range (NEB, Cat. No. P7719S; Lot no. 10040349), 4× Laemmli sample buffer (Bio-rad, Cat. No. 1610747; Lot no. L004133B), β-mercaptoethanol (Sigma-Aldrich, Cat. No. M3148; Lot no. 60-24-2), SuperBlock™ T20 (TBS) blocking buffer (ThermoScientific, Cat. No. 37536; Lot no. UC282578), 1M sodium azide solution (Sigma-Aldrich, Cat. No. 08591-1 mL-F; Lot no. BCBV4989), α-Rabbit pAb to Ms IgG (abcam, Cat. No. ab97046; Lot no. GR3252115-1), α-Goat pAb to Rb IgG (CST, Cat. No. 7074S; Lot no. 28), α-GAPDH (abcam, Cat. No. ab8245), α-HMGCR (GeneTex, Cat. No. GTX54088; Lot no. 821903509), ECL™ Prime western blotting reagents (GE Healthcare, Cat. No. RPN2232; Lot no. 17001655), Ponceau S solution (Sigma-Aldrich, Cat. No. P7170; Lot no. SLBV4112), Difco™ Skim milk (BD, Cat. No. 232100; Lot no. 8346795), and iBlot® 2 NC Regular stacks (Invitrogen, Cat. No. IB23001; Lot no. 2NR110619-02), were used.
For cell harvesting, the cells were first separated from the plate using trypsin and then washed with the medium and PBS. Specifically, the medium was suctioned off and washed with 1 mL of PBS, and PBS was suctioned off. The cells were treated with 0.5 mL TrypLE™ Express at 37° C. for 7 minutes to separate the cells, and then 0.5 mL of complete medium was added to collect 1 mL of cell culture solution. Then, 1 mL of the cell collection solution was centrifuged at 8,000 rpm for 120 seconds, and the supernatant was removed. After washing with 0.2 mL of PBS, the PBS was removed.
For cell lysis, a lysis buffer was added and cell debris was removed to obtain a cell lysate. Specifically, the cells were treated with 70 μL of 1×RIPA buffer containing a protease inhibitor and incubated for 30 minutes on ice. Then, the cells were centrifuged at 4° C. and 15,000 rpm for 10 minutes to obtain a cell lysate.
Then, a standard curve was obtained using the BCA assay, and the protein mass in the lysate was quantified by substituting the curve. The mixture was incubated at 37° C. for 30 minutes using 20 μL of standard or sample solution, and 200 μL of BCA or Bradford solution, and measured at 562 nm absorbance. Samples were prepared by adding 4× sample buffer so that the quantity of protein added to each well was 15 μg.
Sodium dodecyl sulfate polyacrylamide gel electrophoresis (SDS-PAGE) was performed by setting a running time of 100 minutes at 120 V on a 4-15% Mini-PROTEAN TGX stain-free gel (15 well). Transferring was performed on iBlot® 2 NC Mini stacks at P0 mode of the dry blotting system. […]

Row | SMILES | DC50
1 | Cc1ncsc1-c1ccc(CNC(=O)[C@@H]2C[C@@H](O)CN2C(=O)[C@@H](NC(=O)COCCOCCNC(=O)O[C@H]2C[C@@H](C)C=C3C=C[C@H](C)[C@H](CC[C@@H]4C[C@@H](O[Si](C)(C)C(C)(C)C)CC(=O)O4)[C@H]32)C(C)(C)C)cc1 [Compound 19, (1S,3R,7S,8S,8aR)-8-(2-((2R,4R)-4-((tert-butyldimethylsilyl)oxy)-6-oxotetrahydro-2H-pyran-2-yl)ethyl)-3,7-dimethyl-1,2,3,7,8,8a-hexahydronaphthalen-1-yl (2-(2-(2-(((S)-1-((2S,4R)-4-hydroxy-2-((4-(4-methylthiazol-5-yl)benzyl)carbamoyl)pyrrolidin-1-yl)-3,3-dimethyl-1-oxobutan-2-yl)amino)-2-oxoethoxy)ethoxy)ethyl)carbamate] | < 50 nM
2 | Cc1ncsc1-c1ccc(CNC(=O)[C@@H]2C[C@@H](O)CN2C(=O)[C@@H](NC(=O)COCCOCCOCCNC(=O)O[C@H]2C[C@@H](C)C=C3C=C[C@H](C)[C@H](CC[C@@H]4C[C@@H](O[Si](C)(C)C(C)(C)C)CC(=O)O4)[C@H]32)C(C)(C)C)cc1 [Compound 20, (1S,3R,7S,8S,8aR)-8-(2-((2R,4R)-4-((tert-butyldimethylsilyl)oxy)-6-oxotetrahydro-2H-pyran-2-yl)ethyl)-3,7-dimethyl-1,2,3,7,8,8a-hexahydronaphthalen-1-yl ((S)-13-((2S,4R)-4-hydroxy-2-((4-(4-methylthiazol-5-yl)benzyl)carbamoyl)pyrrolidine-1-carbonyl)-14,14-dimethyl-11-oxo-3,6,9-trioxa-12-azapentadecyl)carbamate] | < 50 nM
3 | Cc1ncsc1-c1ccc(CNC(=O)[C@@H]2C[C@@H](O)CN2C(=O)[C@@H](NC(=O)COCCOCCOCCOCCOCCNC(=O)O[C@H]2C[C@@H](C)C=C3C=C[C@H](C)[C@H](CC[C@@H]4C[C@@H](O[Si](C)(C)C(C)(C)C)CC(=O)O4)[C@H]32)C(C)(C)C)cc1 [Compound 22, (1S,3R,7S,8S,8aR)-8-(2-((2R,4R)-4-((tert-butyldimethylsilyl)oxy)-6-oxotetrahydro-2H-pyran-2-yl)ethyl)-3,7-dimethyl-1,2,3,7,8,8a-hexahydronaphthalen-1-yl ((S)-19-((2S,4R)-4-hydroxy-2-((4-(4-methylthiazol-5-yl)benzyl)carbamoyl)pyrrolidine-1-carbonyl)-20,20-dimethyl-17-oxo-3,6,9,12,15-pentaoxa-18-azahenicosyl)carbamate] | < 50 nM
4 | Cc1ncsc1-c1ccc(CNC(=O)[C@@H]2C[C@@H](O)CN2C(=O)[C@@H](NC(=O)C2(F)CC2)C(C)(C)C)c(OCCOCCNC(=O)O[C@H]2C[C@@H](C)C=C3C=C[C@H](C)[C@H](CC[C@@H]4C[C@@H](O)CC(=O)O4)[C@H]32)c1 [Compound 23, (1S,3R,7S,8S,8aR)-8-(2-((2R,4R)-4-hydroxy-6-oxotetrahydro-2H-pyran-2-yl)ethyl)-3,7-dimethyl-1,2,3,7,8,8a-hexahydronaphthalen-1-yl (2-(2-(2-(((2S,4R)-1-((S)-2-(1-fluorocyclopropane-1-carboxamido)-3,3-dimethylbutanoyl)-4-hydroxypyrrolidine-2-carboxamido)methyl)-5-(4-methylthiazol-5-yl)phenoxy)ethoxy)ethyl)carbamate] | < 50 nM

Second part, the molecule after the results:

Row | DC50 | SMILES
5 | < 50 nM | Cc1ncsc1-c1ccc(CNC(=O)[C@@H]2C[C@@H](O)CN2C(=O)[C@@H](NC(=O)COCCOCCOCCOCCNC(=O)O[C@H]2C[C@@H](C)C=C3C=C[C@H](C)[C@H](CC[C@@H]4C[C@@H](O)CC(=O)O4)[C@H]32)C(C)(C)C)cc1 [Compound 17, (1S,3R,7S,8S,8aR)-8-(2-((2R,4R)-4-hydroxy-6-oxotetrahydro-2H-pyran-2-yl)ethyl)-3,7-dimethyl-1,2,3,7,8,8a-hexahydronaphthalen-1-yl ((S)-16-((2S,4R)-4-hydroxy-2-((4-(4-methylthiazol-5-yl)benzyl)carbamoyl)pyrrolidine-1-carbonyl)-17,17-dimethyl-14-oxo-3,6,9,12-tetraoxa-15-azaoctadecyl)carbamate]
6 | < 50 nM | Cc1ncsc1-c1ccc(CNC(=O)[C@@H]2C[C@@H](O)CN2C(=O)[C@@H](NC(=O)COCCOCCOCCOCCOCCNC(=O)O[C@H]2C[C@@H](C)C=C3C=C[C@H](C)[C@H](CC[C@@H]4C[C@@H](O)CC(=O)O4)[C@H]32)C(C)(C)C)cc1 [Compound 18, (1S,3R,7S,8S,8aR)-8-(2-((2R,4R)-4-hydroxy-6-oxotetrahydro-2H-pyran-2-yl)ethyl)-3,7-dimethyl-1,2,3,7,8,8a-hexahydronaphthalen-1-yl ((S)-19-((2S,4R)-4-hydroxy-2-((4-(4-methylthiazol-5-yl)benzyl)carbamoyl)pyrrolidine-1-carbonyl)-20,20-dimethyl-17-oxo-3,6,9,12,15-pentaoxa-18-azahenicosyl)carbamate]
7 | < 50 nM | Cc1ncsc1-c1ccc(CNC(=O)[C@@H]2C[C@@H](O)CN2C(=O)[C@@H](NC(=O)COCCOCCOCCOCCNC(=O)O[C@H]2C[C@@H](C)C=C3C=C[C@H](C)[C@H](CC[C@@H]4C[C@@H](O[Si](C)(C)C(C)(C)C)CC(=O)O4)[C@H]32)C(C)(C)C)cc1 [Compound 21, (1S,3R,7S,8S,8aR)-8-(2-((2R,4R)-4-((tert-butyldimethylsilyl)oxy)-6-oxotetrahydro-2H-pyran-2-yl)ethyl)-3,7-dimethyl-1,2,3,7,8,8a-hexahydronaphthalen-1-yl ((S)-16-((2S,4R)-4-hydroxy-2-((4-(4-methylthiazol-5-yl)benzyl)carbamoyl)pyrrolidine-1-carbonyl)-17,17-dimethyl-14-oxo-3,6,9,12-tetraoxa-15-azaoctadecyl)carbamate]
